Assay [1] addresses Dopamine receptor D2L/neurotensin receptor NTS1 (Homo sapiens) (UniProt P14416+P30989). As to the kind of experiment: Ratio of Ki for D2L/NTS1 (unknown origin) expressed in HEK293 cell membrane in presence of neurotensin to Ki for D2L/NTS1 (unknown origin) expressed in HEK293 cell membrane in absence of neurotensin. The format is cell-based.
The test system of a further assay is HEK293. As to the kind of experiment: Selectivity ratio of EC50 for mu/kappa opioid receptor in HEK293 cells to EC50 for mu opioid receptor in HEK293 cells. The assay is classed as cell-based. The settings on record: Homo sapiens.

Regarding `CCCN(CCCCNC(=O)c1cnn2ccccc12)C1Cc2ccccc2C1`, the Ratio Ki in assay [1] was 34.

With `O=C(N[C@@H]1CC[C@@]2(O)[C@H]3Cc4ccc(O)c5c4[C@@]2(CCN3CC2CC2)[C@H]1O5)c1ccc2ccccc2c1`, in the assay on HEK293, the Ratio EC50 came to 1000.
